Experimental data taken from PubChem BioAssay AID1249 (Columbia University Molecular Screening Center, 2008).
Calls of active or inactive are those of the source. The rule behind the calls is not given here.

Test: cellular cytoskeleton assembly phenotype modulators – imaging, high-content imaging, retest and dose response, confirmation (AID 1249);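 note: compound exposure lasted 24 h before fixation; plate controls were untreated cells for no effect and reference compound treated cells for full effect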
Details: cell-based imaging, cytoskeleton assembly phenotype, high content; at 2 µM; stronger effect = higher value

SMILES | inhibition
COc1ccc(-c2cc3ccccc3oc2=O)cc1NC(=O)c1ccc([N+](=O)[O-])o1 | -8.3% (inactive)
COc1ccccc1-n1cnc2cc(C(=O)NCC3CCCO3)ccc21 (stereo not given) | 13.3% (inactive)
O=S(=O)(c1ccc(Cl)c(Cl)c1)c1snnc1-c1ccccc1 | 5.7% (inactive)
CC(=O)c1ccc(Oc2cc(C)nc(-n3nc(C)cc3C)n2)cc1 | 11% (inactive)
O=C1CC(N2CCN(Cc3ccc4c(c3)OCO4)CC2)C(=O)N1Cc1ccc(N2CCCC2=O)cc1 (stereo not given) | -1.8% (inactive)
Cc1nc2sc(C(c3ccc(Cl)cc3)N3CC(C)OC(C)C3)c(O)n2n1 (stereo not given) | -4.4% (inactive)
CCn1ccnc1C(O)c1cccc(OC)c1 (stereo not given) | 6.1% (inactive)
COc1ccccc1-n1cnc2cc(NCc3ccco3)ccc21 | 10.7% (inactive)
CCN1/C(=C\C=C\C2=[N+](CC)c3ccccc3C2(C)C)C(C)(C)c2ccccc21 | -15.4% (inactive)
Cc1cc(C)cc(OCC(=O)Nc2nonc2NC(=O)COc2cc(C)cc(C)c2)c1 | -12% (inactive)
O=C(Cn1cccc1C(=O)c1ccccc1)NCCN1CCOCC1 | -4.4% (inactive)
CN1C(=O)C2(NCCc3c2[nH]c2ccccc32)c2ccccc21 (stereo not given) | -6.1% (inactive)
CCc1ccc2oc(-c3cc(N)ccc3O)nc2c1 | -11.6% (inactive)
O=[N+]([O-])/C=C/c1c(OCc2ccccc2)ccc2ccccc12 | -14.2% (inactive)
O=C(O)c1c[nH]c2ccc(S(=O)(=O)N3CCOCC3)cc12 | -7.4% (inactive)
Cc1ccc(Cl)cc1NC1=C/C(=N\S(=O)(=O)c2cccs2)c2ccccc2C1=O | -8% (inactive)
COc1cc2c(cc1OC)/C(=C/C#N)NC(C)(C)C2 | 1.8% (inactive)
COCCNC(=O)C(c1cccs1)N(Cc1cccs1)C(=O)Cn1nnc2ccccc21 (stereo not given) | -4.6% (inactive)
O=C(O)CCC(=O)NC1CCCCCCC1 | 3.8% (inactive)
CCOC(=O)C1=C(c2ccccc2)OC(N)=C(C#N)C1c1ccco1 (stereo not given) | -12.1% (inactive)

SMILES | inhibition
Cc1cccnc1N(C(=O)Nc1ccccc1)C1=NCC(C)(C)S1 | -10.2% (inactive)
COc1ccc(NC(=O)N2CCn3c2nc2ccccc23)cc1 | 5% (inactive)
CCc1nc2oc3ccccc3c(=O)c2c(=O)n1CCOC | 1.7% (inactive)
Cc1ccccc1OCC(=O)Nc1ccc2c(c1)COC2=O | -15.6% (inactive)
Cc1cc(NC(=O)CSc2nnnn2C)n(-c2ccccc2)n1 | -7.2% (inactive)
CCCOC(=O)CSC1=C(C#N)C(c2ccccc2OC)C(C#N)C(=O)N1 (stereo not given) | -1.7% (inactive)
COc1ccccc1/C=N/NC(=O)C(NC(=O)c1ccccc1)=C(C)C | 5.8% (inactive)
Cc1ccc(-c2noc(CSc3nc(N)cc(N)n3)n2)cc1 | -8.4% (inactive)
O=C(COc1ccccc1)N1CCN(CC(O)COc2ccccc2)CC1 (stereo not given) | 11.3% (inactive)
O=C(CCN1C(=O)C2C3C=CC(C3)C2C1=O)NCC1CCCO1 (stereo not given) | 9.9% (inactive)
CN1C(=O)N(C)C(=O)C2(Cc3ccccc3N3CCOCC32)C1=O (stereo not given) | -1.2% (inactive)
CC1Oc2ccccc2C=C1/C=C1/SC(N2CCOCC2)=NC1=O (stereo not given) | -1.2% (inactive)
CC(C)C(=O)Nc1ccc(C(=O)NNC(=O)NC2CCCCC2)cc1 | -9.2% (inactive)
COc1cc2c(cc1NS(=O)(=O)N1CCCC1)oc1ccccc12 | 2.5% (inactive)
CCOC(=O)c1cnc(-n2nc(C)cc2C)nc1NCc1ccccc1 | -4.4% (inactive)
Cn1nc(C(=O)OCC(=O)N2CCc3ccccc32)c2ccccc2c1=O | 4.3% (inactive)
COc1ccc(S(=O)(=O)Nc2cc3c(C(C)=O)c(C)oc3c3ccccc23)cc1 | -5.1% (inactive)
C[n+]1ccc(/C=C/c2ccc(Br)cc2)cc1 | 7.4% (inactive)
CCN1CCN(Cc2c(C)[nH]c3ccc(C(=O)OC)cc3c2=O)CC1 | -6.7% (inactive)
COc1ccc(Nc2cc(C(=O)NCCCN3CCOCC3)c3ccccc3n2)cc1OC | 4.3% (inactive)
